Laboratory results reported in PubChem BioAssay (NCI).
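These data come from cells grown in 96-well plates and exposed to compound for 48 hours at five concentrations. Here, GI50 denotes the concentration required for 50% inhibition of growth. TGI marks complete inhibition of growth.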

Assays:
Assay in all cases: growth of human tumour cells (NCI), 48 h
[1] = test system: ACHN renal
[2] = test system: HCT-15 colon
[3] = test system: LOX IMVI melanoma
[4] = test system: MDA-MB-435
[5] = test system: OVCAR-4 ovarian
[6] = test system: SK-MEL-28 melanoma
[7] = test system: SNB-75 CNS
[8] = test system: SW-620 colon
[9] = test system: TK-10 renal
[10] = test system: U251 CNS

Row | SMILES | GI50 [1] [µM] | TGI [1] [µM] | GI50 [2] [µM] | TGI [2] [µM] | GI50 [3] [µM] | TGI [3] [µM] | GI50 [4] [µM] | TGI [4] [µM] | GI50 [5] [µM] | TGI [5] [µM] | GI50 [6] [µM] | TGI [6] [µM] | GI50 [7] [µM] | TGI [7] [µM] | GI50 [8] [µM] | TGI [8] [µM] | TGI [9] [µM] | GI50 [10] [µM] | TGI [10] [µM] | GI50 [9] [µM]
1 | COc1ccc(C(O)c2cc3c(N)c(C(=O)Nc4cccc(Cl)c4)sc3nc2C)cc1 (centres undefined) | 2.3 | > 42.4 | 1.18 | > 49.2 | 1.71 | > 40.7 | 0.0371 | 0.262 | 2.59 | > 51.7 | 1.23 | 55 | 0.22 | 16.6 | 1 | > 38.3 | > 50.3 | 1.14 | > 37.8 | –
2 | C1CC2CN(CCCN3CCOCC3)C(C1)O2 (centres undefined) | – | > 100 | – | > 100 | – | > 100 | – | > 100 | – | > 100 | – | > 100 | – | > 100 | – | > 100 | > 100 | – | > 100 | –
3 | CN(C)CCSS(=O)(=O)O | – | > 100 | – | > 100 | – | > 100 | – | > 100 | – | > 100 | – | > 100 | – | > 100 | – | > 100 | > 100 | – | > 100 | –
4 | Cc1c2cc(Cl)c3ccccc3c2c[n+]2ccccc12 | 22 | > 100 | 41.8 | > 100 | 15 | 38.9 | 4.1 | 17.9 | 2.71 | 17.5 | 1.8 | 4.87 | 2.31 | 12.9 | 3.74 | 24.2 | > 100 | 0.468 | 3.61 | 23.1
5 | Cc1c2c(c(C)c3c4c(oc13)CCCC4)C=NCC2 | – | 37.7 | – | 34.4 | – | 38.3 | – | 29.3 | – | 54.8 | – | 35.7 | – | 32.4 | – | 59.3 | 25.4 | – | 26.8 | –
6 | Cc1nc2ccc(NC(=O)CCNC(=O)CCCc3ccc(CC(C(=O)O)C(=O)O)cc3)cc2s1 | > 100 | > 100 | > 100 | > 100 | > 100 | > 100 | > 100 | > 100 | > 100 | > 100 | > 100 | > 100 | > 100 | > 100 | > 100 | > 100 | > 100 | > 100 | > 100 | > 100
7 | Cn1cc(C2=C(c3cn(C)c4ccc(Cl)cc34)C(=O)NC2=O)c2ccccc21 | 3.15 | > 25 | 1.35 | > 25 | 2.74 | 11.9 | 0.645 | 2.85 | 6 | > 23.5 | 4.26 | 19.6 | 0.709 | > 17.3 | 1.38 | > 25 | 23 | 2.21 | 14 | 5.55
8 | c1ccc(-c2nc(N3CCOCC3)c3c4c(sc3n2)CCCCCC4)nc1 | 4.49 | 16.6 | 3.43 | 18.6 | 5.24 | 20.9 | 4.82 | 17.7 | 4.85 | 80.3 | 11 | 23.2 | 7.1 | 20.8 | 8.87 | 21.9 | 25.5 | 4.38 | 17 | 9.28
9 | CC(C)Cc1ccc(C(C)CC2=CCC(CN(C)C)C2=O)cc1 (centres undefined) | – | 30.4 | – | 7.91 | – | 9.84 | – | 20.5 | – | 41.6 | – | 21.9 | – | 29.5 | – | 4.48 | > 22.7 | – | 13.6 | –
10 | COc1cc2c(cc1O)CC1c3c(cc(O)c(OC)c3-2)CCN1C (centres undefined) | – | > 100 | – | > 100 | – | > 100 | – | > 100 | – | > 100 | – | > 100 | – | > 100 | – | > 100 | > 100 | – | > 100 | –
